Experimental data as given in patent publication US12428394B2, “2,4-disubstituted pyrimidine derivative, preparation method therefor and use thereof” (CHENGDU ZENITAR BIOMEDICAL TECHNOLOGY CO., LTD., priority 2019, dated 2025).
pIC50: −log10 of the molar value.

How the values were obtained:
SET-2 cells (JAK2 V617F) = test: Inhibition of cell proliferation by MTT experiment, SET-2; type: cell-based; conditions: Homo sapiens, SET-2; MTT, 72 h; read-out: IC50 value on cell proliferation inhibition, SET-2 (V617F)
From the text: (§1) MV4-11, MOLM-13 and SET-2 were used to determine the influence of the test compound of the present invention on the activity of cancer cells. MV4-11 and MOLM-13 were human leukemia cell lines from American Type Culture Collection (ATCC), expressing FLT3 receptor and containing FLT3-ITD mutation; and SET-2 was a primary thrombocythemia cell purchased from Chengdu Bowerston Biotechnology Co., Ltd., China, continuously expressing JAK2 receptor and containing the mutation of V617F.
(§2) MV4-11, MOLM-13 and SET-2 cells were filled in a 96-well petri dish with 100 μL IMDM as the medium, containing 10% fetal bovine serum (100 mL/bottle, purchased from Grassland Lvye Bio-Engineering Materials Co., Ltd. and cryopreserved at −20° C.), and with 10,000-15,000 cells in each well. […] In each group, 3-5 replicate wells were set and incubated in 5% CO2 at 37° C. for 72 h. At the endpoint, 20 μL MTT (5 mg/mL) was added to each well, and the cells were incubated for another 1-3 h.
(§3) After the inhibition rate of each concentration of compound on cell proliferation activity was calculated, the dose-response curve and IC50 value were fitted by Graphpad prism software according to the compound treatment concentrations and corresponding inhibition rates.

[1] = test system: MOLM-13 cells (FLT3-ITD-/+); test: Inhibition of cell proliferation by MTT experiment, MOLM-13; type: cell-based, human; conditions: Homo sapiens, MOLM-13; MTT, 72 h; read-out: IC50 value on cell proliferation inhibition, MOLM-13 FLT3-ITD-/+
From the text: as §1, §2, §3

JAK2 = biological target: T1, JAK2 (Homo sapiens, UniProt O60674); test: In vitro kinase activity experiment, JAK2; type: biochemical; conditions: inhibition rate of enzyme at 500 nM; measured by Eurofins
T1 construct: purchased Eurofins
Description: (§4) Buffer solution ([…], pH 7.0, 0.2 mm EDTA, 10 mM mncl2), kinase to be tested, substrate of kinase to be tested, 10 mM magnesium acetate and γ33P-ATP solution, and compounds with different concentrations were added to a reaction tube in turn, then MgATP was added to initiate the enzyme reaction process, and incubated at room temperature for 40 min. Then, the reaction was terminated with 5 μl of […], and 10 μl of the reaction solution was titrated onto the Filtermat A membrane, washed with 75 mM phosphate solution for three times, each time for 5 min., and then washed with methanol once. Finally, the Filtermat A membrane was dried and the scintillation count was carried out.

FLT3 = biological target: T2, FLT3 (Homo sapiens, UniProt P36888); test: In vitro kinase activity experiment, FLT3; type: biochemical; conditions: 40 min; inhibition rate of enzyme at 500 nM; measured by Eurofins; read-out: Kinase activity @ 500 nM (%) FLT3
T2 construct: purchased Eurofins
T2 sequence (P36888 27-993): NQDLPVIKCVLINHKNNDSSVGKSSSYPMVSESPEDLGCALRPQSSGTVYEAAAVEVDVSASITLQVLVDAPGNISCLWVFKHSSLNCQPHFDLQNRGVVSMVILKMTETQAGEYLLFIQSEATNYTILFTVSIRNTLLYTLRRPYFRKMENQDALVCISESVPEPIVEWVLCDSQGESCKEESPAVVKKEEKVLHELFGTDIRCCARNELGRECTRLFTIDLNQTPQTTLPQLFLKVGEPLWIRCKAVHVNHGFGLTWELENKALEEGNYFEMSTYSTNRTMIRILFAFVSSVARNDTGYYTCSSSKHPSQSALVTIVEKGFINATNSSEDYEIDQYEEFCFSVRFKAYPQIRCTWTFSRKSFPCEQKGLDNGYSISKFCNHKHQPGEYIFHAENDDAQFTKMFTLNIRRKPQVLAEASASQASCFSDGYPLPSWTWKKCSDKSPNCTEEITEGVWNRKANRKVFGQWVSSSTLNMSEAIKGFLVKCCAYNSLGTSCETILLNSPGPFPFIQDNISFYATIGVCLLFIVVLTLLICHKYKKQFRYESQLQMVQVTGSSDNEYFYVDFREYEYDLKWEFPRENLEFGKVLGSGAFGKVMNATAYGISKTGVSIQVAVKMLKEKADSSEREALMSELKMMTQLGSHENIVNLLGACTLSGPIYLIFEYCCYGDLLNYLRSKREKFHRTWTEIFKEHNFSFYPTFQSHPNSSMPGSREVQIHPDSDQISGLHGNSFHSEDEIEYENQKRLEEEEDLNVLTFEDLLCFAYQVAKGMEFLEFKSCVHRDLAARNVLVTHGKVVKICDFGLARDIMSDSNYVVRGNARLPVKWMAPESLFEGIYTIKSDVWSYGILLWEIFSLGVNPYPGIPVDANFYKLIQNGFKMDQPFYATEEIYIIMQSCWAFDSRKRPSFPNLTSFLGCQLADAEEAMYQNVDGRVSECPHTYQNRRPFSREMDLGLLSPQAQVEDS
Description: as §4

[2] = test system: MV4-11 cells (FLT3-ITD+/+); test: Inhibition of cell proliferation by MTT experiment, MV4-11; type: cell-based, human; conditions: Homo sapiens, MV4-11; MTT, 72 h; read-out: IC50 value on cell proliferation inhibition, MV4-11 FLT3-ITD+/+
From the text: as §1, §2, §3

T1 sequence (O60674 whole entry): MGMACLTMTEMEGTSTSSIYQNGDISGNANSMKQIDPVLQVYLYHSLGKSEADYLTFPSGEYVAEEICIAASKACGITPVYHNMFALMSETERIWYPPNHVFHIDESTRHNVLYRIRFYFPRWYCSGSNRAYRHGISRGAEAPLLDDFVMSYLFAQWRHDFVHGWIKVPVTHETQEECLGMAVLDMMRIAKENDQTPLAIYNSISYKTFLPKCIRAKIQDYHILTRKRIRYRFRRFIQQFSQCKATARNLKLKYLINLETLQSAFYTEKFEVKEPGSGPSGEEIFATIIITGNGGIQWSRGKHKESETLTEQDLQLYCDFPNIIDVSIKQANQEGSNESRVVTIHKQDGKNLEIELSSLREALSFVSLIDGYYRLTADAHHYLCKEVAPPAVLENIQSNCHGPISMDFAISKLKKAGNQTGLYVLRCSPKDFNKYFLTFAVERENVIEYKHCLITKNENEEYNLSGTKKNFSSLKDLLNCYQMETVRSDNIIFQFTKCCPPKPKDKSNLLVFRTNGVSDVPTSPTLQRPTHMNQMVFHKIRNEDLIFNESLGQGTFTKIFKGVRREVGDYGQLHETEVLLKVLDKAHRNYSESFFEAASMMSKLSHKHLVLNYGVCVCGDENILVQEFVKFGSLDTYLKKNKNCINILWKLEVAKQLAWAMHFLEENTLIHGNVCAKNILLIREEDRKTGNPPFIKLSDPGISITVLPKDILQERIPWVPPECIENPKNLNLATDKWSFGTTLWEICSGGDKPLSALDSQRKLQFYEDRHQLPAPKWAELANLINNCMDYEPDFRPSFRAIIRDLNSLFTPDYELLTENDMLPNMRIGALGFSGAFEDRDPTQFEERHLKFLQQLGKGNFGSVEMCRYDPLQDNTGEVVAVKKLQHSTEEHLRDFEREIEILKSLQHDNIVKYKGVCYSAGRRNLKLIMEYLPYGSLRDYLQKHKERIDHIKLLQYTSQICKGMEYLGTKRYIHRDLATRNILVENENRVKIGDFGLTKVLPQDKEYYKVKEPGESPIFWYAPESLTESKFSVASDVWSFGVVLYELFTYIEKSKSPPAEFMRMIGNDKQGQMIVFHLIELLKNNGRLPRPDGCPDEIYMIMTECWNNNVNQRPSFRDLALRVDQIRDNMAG

Row | pIC50 [1] | Kinase activity @ 500 nM (%) JAK2 (JAK2) [%] | inhibition at 0.5 µM (FLT3) [%] | pIC50 [2] | SMILES | pIC50 (SET-2 cells (JAK2 V617F))
1 | 7.00 to 8.00 | 96 | 94 | 7.00 to 8.00 | Cc1cnc(Nc2ccc(N3CCN(C(=O)CO)CC3)c(F)c2)nc1-c1cnn(C(C)C)c1 [CLJ-40, 5-methyl-N-(3-fluoro-4-(4-hydroxyacetylpiperazine-1-yl)phenyl)-4-(1-isopropyl-1H-pyrazole-4-yl) pyrimidine-2-amine] | 6.00 to 7.00
2 | 6.00 to 7.00 | 102 | 97 | 7.00 to 8.00 | Cc1cnc(Nc2ccc(N3CCC(N(C)C(=O)CO)CC3)c(F)c2)nc1-c1cnn(C(C)C)c1 [CLJ-41, N-(1-(2-fluoro-4-((4-(1-isopropyl-1H-pyrazol-4-yl)-5-methylpyrimidine-2-yl)amino)phenyl)piperidine-4-yl)-2-hydroxy-N-methylacetamide] | 6.00 to 7.00
3 | 6.00 to 7.00 | 100 | 95 | 7.00 to 8.00 | Cc1cnc(Nc2ccc(N3CCC(CO)CC3)c(F)c2)nc1-c1cnn(C(C)C)c1 [CLJ-42, 5-methyl-N-(3-fluoro-4-(4-hydroxymethylpiperidine-1-yl)phenyl)-4-(1-isopropyl-1H-pyrazole-4-yl) pyrimidine-2-amine] | 6.00 to 7.00
4 | 6.00 to 7.00 | 95 | 94 | 7.00 to 8.00 | Cc1cnc(Nc2ccc(N3CCC(NCCO)CC3)c(F)c2)nc1-c1cnn(C(C)C)c1 [CLJ-43, 5-methyl-N-(3-fluoro-4-(4-hydroxyethylaminopiperidine-1-yl)phenyl)-4-(1-isopropyl-1H-pyrazole-4-yl) pyrimidine-2-amine] | 6.00 to 7.00
5 | 7.00 to 8.00 | 91 | 98 | 8.00 to 9.00 | Cc1cnc(Nc2ccc(N3CCC(N(C)CCCO)CC3)c(F)c2)nc1-c1cnn(C(C)C)c1 [CLJ-45, 5-methyl-N-(3-fluoro-4-(4-N-hydroxypropyl-4-N-methylaminopiperidine-1-yl)phenyl)-4-(1-isopropyl-1H-pyrazole-4-yl) pyrimidine-2-amine] | 6.00 to 7.00
6 | 7.00 to 8.00 | 102 | 98 | 8.00 to 9.00 | Cc1cnc(Nc2ccc(N3CCC(N(C)CCCCO)CC3)c(F)c2)nc1-c1cnn(C(C)C)c1 [CLJ-46, 5-methyl-N-(3-fluoro-4-(4-N-hydroxybutyl-4-N-methylaminopiperidine-1-yl)phenyl)-4-(1-isopropyl-1H-pyrazole-4-yl) pyrimidine-2-amine] | 6.00 to 7.00
7 | 7.00 to 8.00 | 93 | 94 | 8.00 to 9.00 | Cc1cnc(Nc2ccc(N3CCC(N(C)CCCCCO)CC3)c(F)c2)nc1-c1cnn(C(C)C)c1 [CLJ-47, 5-methyl-N-(3-fluoro-4-(4-N-hydroxypentyl-4-N-methylaminopiperidine-1-yl)phenyl)-4-(1-isopropyl-1H-pyrazole-4-yl) pyrimidine-2-amine] | 6.00 to 7.00
8 | 6.00 to 7.00 | 93 | 96 | 6.00 to 7.00 | CCOCCN(C)C1CCN(c2ccc(Nc3ncc(C)c(-c4cnn(C(C)C)c4)n3)cc2F)CC1 [CLJ-48, 5-methyl-N-(3-fluoro-4-(4-N-ethoxyethyl-4-N-methylaminopiperidine-1-yl)phenyl)-4-(1-isopropyl-1H-pyrazole-4-yl) pyrimidine-2-amine] | 6.00 to 7.00
9 | 6.00 to 7.00 | 95 | 91 | 6.00 to 7.00 | CCCN(C)C1CCN(c2ccc(Nc3ncc(C)c(-c4cnn(C(C)C)c4)n3)cc2F)CC1 [CLJ-49, 5-methyl-N-(3-fluoro-4-(4-N-propyl-4-N-methylaminopiperidine-1-yl)phenyl)-4-(1-isopropyl-1H-pyrazole-4-yl) pyrimidine-2-amine] | 6.00 to 7.00
10 | < 6.00 | 89 | 90 | 6.00 to 7.00 | CCCCN(C)C1CCN(c2ccc(Nc3ncc(C)c(-c4cnn(C(C)C)c4)n3)cc2F)CC1 [CLJ-50, 5-methyl-N-(3-fluoro-4-(4-N-butyl-4-N-methylaminopiperidine-1-yl)phenyl)-4-(1-isopropyl-1H-pyrazole-4-yl) pyrimidine-2-amine] | < 6.00
11 | 8.00 to 9.00 | 95 | 93 | 6.00 to 7.00 | CCCCCCN(C)C1CCN(c2ccc(Nc3ncc(C)c(-c4cnn(C(C)C)c4)n3)cc2F)CC1 [CLJ-51, 5-methyl-N-(3-fluoro-4-(4-N-hexyl-4-N-methylaminopiperidine-1-yl)phenyl)-4-(1-isopropyl-1H-pyrazole-4-yl) pyrimidine-2-amine] | 6.00 to 7.00
12 | 7.00 to 8.00 | 100 | 98 | 8.00 to 9.00 | Cc1cnc(Nc2ccc(N3CCC(N(C)CC4CCCO4)CC3)c(F)c2)nc1-c1cnn(C(C)C)c1 (stereo not drawn) [CLJ-53, N-(3-fluoro-4-(4-(methyl((tetrahydrofuran-2-yl)methyl)amino)piperidine-1-yl)phenyl)-4-(1-isopropyl-1H-pyrazole-4-yl)-5-methylpyrimidine-2-amine] | 6.00 to 7.00
13 | < 6.00 | 17 | 23 | < 6.00 | Cc1cnc(Nc2ccc(N3CCC(N(C)CCN4CCOCC4)CC3)c(F)c2)nc1-c1cnn(C(C)C)c1 [CLJ-54, N-(3-fluoro-4-(4-(methyl (2-morpholinoethyl)amino)piperidine-1-yl)phenyl)-4-(1-isopropyl-1H-pyrazole-4-yl)-5-methylpyrimidine-2-amine] | < 6.00
14 | < 6.00 | 25 | 20 | < 6.00 | Cc1cnc(Nc2ccc(N3CCC(N(C)CCN4CCCCC4)CC3)c(F)c2)nc1-c1cnn(C(C)C)c1 [CLJ-55, N-(3-fluoro-4-(4-(methyl (1-piperidylethyl)amino)piperidine-1-yl)phenyl)-4-(1-isopropyl-1H-pyrazole-4-yl)-5-methylpyrimidine-2-amine] | < 6.00
15 | 7.00 to 8.00 | 99 | 96 | 7.00 to 8.00 | Cc1cnc(Nc2ccc(N3CCC(N(C)CCN4CCN(C)CC4)CC3)c(F)c2)nc1-c1cnn(C(C)C)c1 [CLJ-56, N-(3-fluoro-4-(4-(methyl (4-methyl-1-piperazine ethyl)amino)piperidine-1-yl)phenyl)-4-(1-isopropyl-1H-pyrazole-4-yl)-5-methylpyrimidine-2-amine] | 6.00 to 7.00
